Experimental data reported in US7951827B2, “Synthesis and antiprotozoal activity of dicationic 3,5-diphenylisoxazoles” (The University of North Carolina at Chapel Hill, priority 2005, dated 2011).
Where a name gives a salt, the structure may show the parent alone. Read-outs that look alike come from different tables or passages of the source.

Columns and labels:
Plasmodium falciparum = experiment: In vitro antiprotozoal activity against Plasmodium falciparum; assay type: cell-based
Procedure: (§1) In vitro antiprotozoal activities, see Ismail, M. A., et al., J. Med. Chem. 46, 4761-4769 (2003), and cytotoxicity were measured following established protocols, see Balz, T., et al., EMBO J., 4, 1273-1277 (1985); Räz. B., et al., Acta Trop., 68:139-147 (1997); and Sperandeo, N. R. et al., Chem. Biochem., 4, 69-73 (2003). […] Other positive controls employed were melarsoprol (against T. brucei), chloroquine, and artemisinin (against P. falciparum), and podophyllotoxin (against VERO cells).

[1] = Cytotoxicity to VERO cells; assay type: cell-based, African green monkey (Cercopithecus Aethiops); conditions: African green monkey (Cercopithecus aethiops), IC50 (μM) Cytotoxicity VERO cells
Procedure: as §1

VERO cells = experiment: Cytotoxicity to VERO cells; assay type: cell-based, African green monkey (Cercopithecus Aethiops)
Procedure: as §1

[2] = system: Trypanosoma brucei brucei; experiment: In vitro antiprotozoal activity against Trypanosoma brucei brucei; assay type: cell-based
Procedure: as §1

[3] = Plasmodium falciparum, Table 1, read-out: IC50 (μM) Plasmodium falciparum
[4] = Plasmodium falciparum, read-out: antiplasmodial IC50 values (P. falciparum)
[5] = Chlorocebus sabaeus, Vero, read-out: IC50 value against VERO cells
[6] = Trypanosoma brucei, Table 1, read-out: IC50 (μM) Trypanosoma brucei brucei
[7] = Table 1, read-out: IC50 (μM) Plasmodium falciparum
[8] = Table 1, read-out: IC50 (μM) Trypanosoma brucei brucei
[9] = Table 1, read-out: IC50 (μM) Cytotoxicity VERO cells
[10] = Trypanosoma brucei, read-out: IC50 values against T. brucei brucei

## CC(C)NC(=N)c1ccc(-c2cc(-c3ccc(C(=N)NC(C)C)cc3)on2)cc1.Cl.Cl [Compound 4, 3,5-Bis[4-(N-isopropyl)amidinophenyl]isoxazole dihydrochloride]
Plasmodium falciparum
  selectivities against P. falciparum over T. brucei brucei: 30 fold
Plasmodium falciparum; [3]
  IC50: 0.0066 µM
Plasmodium falciparum; [4]
  IC50: < 0.008 µM
[1]
  IC50: 176 µM
VERO cells
  toxicity (VERO cells) in words: very nontoxic
VERO cells; [5]
  IC50: > 100 µM
[2]; [6]
  IC50: 0.196 µM

## c1cc(-c2cc(-c3ccc(C4=NCCN4)cc3)on2)ccc1C1=NCCN1 [Compound 5, 3,5-Bis[4-(2-imidazolinyl)phenyl]isoxazole dihydrochloride]
Plasmodium falciparum; [7]
  IC50: 0.0041 µM
VERO cells
  IC50: 1.81 µM
[2]; [8]
  IC50: 0.0872 µM

## COc1cc(C(=N)N)ccc1-c1cc(-c2ccc(C(=N)N)cc2)no1 [Compound 8, 5-(4-Amidino-2-methoxyphenyl)-3-(4-amidinophenyl)isoxazole dihydrochloride]
Plasmodium falciparum; [3]
  IC50: 0.006 µM
Plasmodium falciparum; [4]
  IC50: < 0.008 µM
[1]
  IC50: 122 µM
VERO cells; [5]
  IC50: > 100 µM
[2]; [6]
  IC50: 0.0106 µM

## COc1cc(C(=N)N)ccc1-c1cc(-c2ccc(C(=N)N)cc2)on1.Cl.Cl [Compound 11, 3-(4-Amidino-2-methoxyphenyl)-5-(4-amidinophenyl)isoxazole dihydrochloride]
other
  melting point: 335 to 337 °C (dec.)
Plasmodium falciparum; [3]
  IC50: 0.0663 µM
[1]
  IC50: 92.6 µM
VERO cells; [5]
  IC50: > 100 µM
[2]; [6]
  IC50: 0.0164 µM

## COc1cc(C(=N)N)ccc1-c1cc(-c2ccc(C(=N)N)cc2OC)on1 [Compound 12, 3,5-Bis(4-amidino-2-methoxyphenyl)isoxazole dihydrochloride]
Plasmodium falciparum; [3]
  IC50: 0.0061 µM
Plasmodium falciparum; [4]
  IC50: < 0.008 µM
[1]
  IC50: 84.8 µM
VERO cells; [5]
  IC50: > 100 µM
[2]; [6]
  IC50: 0.013 µM

## CC(C)NC(=N)c1ccc(-c2cc(-c3cccc(C(=N)NC(C)C)c3)no2)cc1.Cl.Cl [Compound 14, 3-[3-(N-Isopropyl)amidinophenyl]-5-[4-(N-isopropyl)amidinophenyl]-isoxazole dihydrochloride]
other
  melting point: > 350 °C
Plasmodium falciparum
  selectivities against P. falciparum over T. brucei brucei: 45 fold
Plasmodium falciparum; [3]
  IC50: 0.0106 µM
Plasmodium falciparum; [4]
  IC50: 0.008 to 0.03 µM
[1]
  IC50: 187 µM
VERO cells
  toxicity (VERO cells) in words: very nontoxic
VERO cells; [5]
  IC50: > 100 µM
[2]; [6]
  IC50: 0.488 µM

## c1cc(C2=NCCN2)cc(-c2cc(-c3ccc(C4=NCCN4)cc3)on2)c1 [Compound 15, 3-[3-(2-Imidazolinyl)phenyl]-5-[4-(2-imidazolinyl)phenyl]isoxazole dihydrochloride]
Plasmodium falciparum; [7]
  IC50: 0.0512 µM
VERO cells; [9]
  IC50: 65 µM
[2]; [8]
  IC50: 1.55 µM

## COc1cc(C(=N)N)ccc1-c1cc(-c2cccc(C(=N)N)c2)no1.Cl.Cl [Compound 18, 5-(4-Amidino-2-methoxyphenyl)-3-(3-amidinophenyl)isoxazole dihydrochloride]
other
  melting point: 241 to 246 °C
Plasmodium falciparum; [3]
  IC50: 0.0035 µM
[1]
  IC50: 177 µM
VERO cells; [5]
  IC50: > 100 µM
[2]; [6]
  IC50: 0.0065 µM
[2]; [10]
  IC50: 0.0065 µM

## Cl.Cl.N=C(N)c1ccc(-c2cc(-c3cc(C(=N)N)ccc3[N+](=O)[O-])no2)cc1 [Compound 19, 3-(5-Amidino-2-nitrophenyl)-5-(4-amidinophenyl)isoxazole dihydrochloride]
other
  melting point: 238 to 240 °C
Plasmodium falciparum; [3]
  IC50: 0.0021 µM
[1]
  IC50: 5.07 µM
VERO cells
  toxicity (VERO cells) in words: quite toxic
[2]; [6]
  IC50: 0.0512 µM

## COc1ccc(C(=N)N)cc1-c1cc(-c2ccc(C(=N)N)cc2)on1.Cl.Cl [Compound 21, 3-(5-Amidino-2-methoxyphenyl)-5-(4-amidinophenyl)isoxazole dihydrochloride]
other
  melting point: 272 to 275 °C
Plasmodium falciparum; [3]
  IC50: 0.0026 µM
[1]
  IC50: 213 µM
VERO cells; [5]
  IC50: > 100 µM
[2]; [6]
  IC50: 0.0118 µM

## CC(C)NC(=N)c1ccc(-c2cc(-c3cccc(C(=N)NC(C)C)c3)on2)cc1.Cl.Cl [Compound 23, 3-[4-(N-Isopropyl)amidinophenyl]-5-[3-(N-isopropyl)amidinophenyl]-isoxazole dihydrochloride]
other
  melting point: 340 to 343 °C (dec.)
Plasmodium falciparum; [3]
  IC50: 0.0347 µM
[1]
  IC50: 186 µM
VERO cells
  toxicity (VERO cells) in words: very nontoxic
VERO cells; [5]
  IC50: > 100 µM
[2]; [6]
  IC50: 0.316 µM

## c1cc(C2=NCCN2)cc(-c2cc(-c3ccc(C4=NCCN4)cc3)no2)c1 [Compound 24, 3-[4-(2-Imidazolinyl)phenyl]-5-[3-(2-imidazolinyl)phenyl]isoxazole dihydrochloride]
Plasmodium falciparum; [7]
  IC50: 0.077 µM
VERO cells; [9]
  IC50: 30.2 µM
[2]; [8]
  IC50: 0.974 µM

## Cl.Cl.N=C(N)c1cccc(-c2cc(-c3ccc(C(=N)N)cc3[N+](=O)[O-])no2)c1 [Compound 27, 3-(4-Amidino-2-nitrophenyl)-5-(3-amidinophenyl)isoxazole dihydrochloride]
other
  melting point: 236 °C (dec.)
Plasmodium falciparum; [3]
  IC50: 0.0304 µM
[1]
  IC50: 206 µM
VERO cells
  toxicity (VERO cells) in words: low toxicity
VERO cells; [5]
  IC50: > 100 µM
[2]; [6]
  IC50: 0.0194 µM

## COc1cc(C(=N)N)ccc1-c1cc(-c2cccc(C(=N)N)c2)on1.Cl.Cl [Compound 29, 3-(4-Amidino-2-methoxyphenyl)-5-(3-amidinophenyl)isoxazole dihydrochloride]
other
  melting point: 288 °C (dec.)
Plasmodium falciparum; [3]
  IC50: 0.0089 µM
Plasmodium falciparum; [4]
  IC50: 0.008 to 0.03 µM
[1]
  IC50: 136 µM
VERO cells; [5]
  IC50: > 100 µM
[2]; [6]
  IC50: 0.0059 µM
[2]; [10]
  IC50: 0.0035 to 0.009 µM

## COc1ccc(C(=N)N)cc1-c1cc(-c2ccc(C(=N)N)cc2[N+](=O)[O-])no1.Cl.Cl [Compound 30, 5-(5-Amidino-2-methoxyphenyl)-3-(4-amidino-2-nitrophenyl)isoxazole dihydrochloride]
other
  melting point: 260 °C (dec.)
Plasmodium falciparum; [3]
  IC50: 0.0195 µM
Plasmodium falciparum; [4]
  IC50: 0.008 to 0.03 µM
[1]
  IC50: 116 µM
VERO cells; [5]
  IC50: > 100 µM
[2]; [6]
  IC50: 0.0342 µM

## COc1cc(C(=N)N)ccc1-c1cc(-c2cc(C(=N)N)ccc2OC)on1.Cl.Cl [Compound 31, 3-(4-Amidino-2-methoxyphenyl)-5-(5-amidino-2-methoxyphenyl)isoxazole dihydrochloride]
other
  melting point: 330 °C (dec.)
Plasmodium falciparum; [3]
  IC50: 0.0297 µM
Plasmodium falciparum; [4]
  IC50: 0.008 to 0.03 µM
[1]
  IC50: 191 µM
VERO cells; [5]
  IC50: > 100 µM
[2]; [6]
  IC50: 0.0057 µM
[2]; [10]
  IC50: 0.0035 to 0.009 µM

## Cl.Cl.N=C(N)c1cccc(-c2cc(-c3cccc(C(=N)N)c3)on2)c1 [Compound 32, 3,5-Bis(3-amidinophenyl)isoxazole dihydrochloride]
other
  melting point: 365 to 367 °C
Plasmodium falciparum; [3]
  IC50: 0.0092 µM
Plasmodium falciparum; [4]
  IC50: 0.008 to 0.03 µM
[1]
  IC50: 153 µM
VERO cells
  toxicity (VERO cells) in words: low toxicity
VERO cells; [5]
  IC50: > 100 µM
[2]; [6]
  IC50: 0.029 µM
[2]; [10]
  IC50: 0.029 µM

## CC(C)NC(=N)c1cccc(-c2cc(-c3cccc(C(=N)NC(C)C)c3)on2)c1.Cl.Cl [Compound 33, 3,5-Bis[3-(N-isopropyl)amidinophenyl]isoxazole dihydrochloride]
other
  melting point: 260 °C (dec.)
Plasmodium falciparum; [3]
  IC50: 0.0431 µM
[1]
  IC50: 180 µM
VERO cells
  toxicity (VERO cells) in words: very nontoxic
VERO cells; [5]
  IC50: > 100 µM
[2]; [6]
  IC50: 4.98 µM

## c1cc(C2=NCCN2)cc(-c2cc(-c3cccc(C4=NCCN4)c3)on2)c1 [Compound 34, 3,5-Bis[3-(2-imidazolinyl)phenyl]isoxazole dihydrochloride]
Plasmodium falciparum; [7]
  IC50: 0.227 µM
VERO cells; [9]
  IC50: 26.2 µM
[2]; [8]
  IC50: 18.5 µM

## Cl.Cl.N=C(N)c1cccc(-c2cc(-c3cc(C(=N)N)ccc3Cl)on2)c1 [Compound 36, 5-(5-Amidino-2-chlorophenyl)-3-(3-amidinophenyl)isoxazole dihydrochloride]
other
  melting point: 347 °C (dec.)
Plasmodium falciparum; [3]
  IC50: 0.0163 µM
Plasmodium falciparum; [4]
  IC50: 0.008 to 0.03 µM
[1]
  IC50: 109 µM
VERO cells
  toxicity (VERO cells) in words: low toxicity
VERO cells; [5]
  IC50: > 100 µM
[2]; [6]
  IC50: 0.0251 µM

## COc1ccc(C(=N)N)cc1-c1cc(-c2cccc(C(=N)N)c2)no1.Cl.Cl [Compound 37, 5-(5-Amidino-2-methoxyphenyl)-3-(3-amidinophenyl)isoxazole dihydrochloride]
other
  melting point: 240 °C (dec.)
Plasmodium falciparum; [3]
  IC50: 0.0192 µM
Plasmodium falciparum; [4]
  IC50: 0.008 to 0.03 µM
[1]
  IC50: 124 µM
VERO cells; [5]
  IC50: > 100 µM
[2]; [6]
  IC50: 0.0074 µM
[2]; [10]
  IC50: 0.0035 to 0.009 µM

## Cl.Cl.N=C(N)c1cccc(-c2cc(-c3cc(C(=N)N)ccc3[N+](=O)[O-])no2)c1 [Compound 38, 3-(5-Amidino-2-nitrophenyl)-5-(3-amidinophenyl)isoxazole dihydrochloride]
other
  melting point: 220 °C (dec.)
Plasmodium falciparum; [3]
  IC50: 0.104 µM
[1]
  IC50: 177 µM
VERO cells
  toxicity (VERO cells) in words: low toxicity
VERO cells; [5]
  IC50: > 100 µM
[2]; [6]
  IC50: 0.085 µM

## COc1ccc(C2=NCCN2)cc1-c1cc(-c2cc(C3=NCCN3)ccc2OC)on1 [Compound 43, 3,5-Bis[5-(2-imidazolinyl)-2-methoxyphenyl]isoxazole dihydrochloride]
Plasmodium falciparum; [7]
  IC50: 0.0114 µM
VERO cells
  IC50: 164 µM
[2]; [8]
  IC50: 0.0448 µM
